Patent US11986513B2, “GAL(1-15) and analogues thereof for use in the prevention and/or treatment of alcohol-related effects and disorders” (UNIVERSIDAD DE MÁLAGA, priority 2017, dated 2024)
Where two headings read alike, the source gives them in different places.

Key:
rats [1] = assay: Locomotor activity (open field), ethanol-reduced locomotion; assay type: in vivo, rat
Method: In this experiment, the effects of GAL(1-15) (3 nmol) on ethanol-reduced locomotion (1.75 g/kg; intraperitoneal (i.p.)) (Vallof et al., 2016) were investigated. Locomotor activity was recorded in rat open field (100×100×50 cm) where animals were individually placed and left to freely explore. Their behaviour was recorded over a 30-minute period by ceiling-mounted video camera, and locomotor activity was analysed using the video-tracking software EthovisionXT. After each assay, all surfaces were cleaned with a paper towel and 70% ethanol solution. For locomotor activity, total distance travelled (cm) and mean speed (cm/s) were recorded. Groups of rats were administered via i.c.v. GAL(1-15) or vehicle 20 minutes before the test; i.p. ethanol (1.75 g/kg) or saline solution administration was performed 5 minutes before the test.

GALR1 [2] = settings: for GALR1 mRNA expression in the corpus striatum: naive rats, mean ± SEM
Method: (§1) The method to perform RNA isolation and RT-PCR was described previously (Millon et al., 2015). Total RNA was isolated from the corpus striatum using RNeasy Lipid Tissue kit (Qiagen, Hilden, Germany). cDNA was obtained using a Reverse Transcriptase Core kit (Eurogentec, Seraing, Belgium). These steps were performed according to the manufacturer's instructions.
(§2) All PCR analyses were performed in triplicate using Power SYBR Green PCR Master Mix (Applied Biosystems, Foster City, USA) in the 7500 RT-PCR system (Applied Biosystems, Foster City, USA). The primer sequences used in this study are:
(§3) The data was analysed using the comparative Ct method and normalised to measurements of glyceraldehyde-3-phosphate dehydrogenase (GAPDH) mRNA.
(§4) Groups of naïve rats were injected i.p. with ethanol at 4 g/kg (Bilbao et al., 2016), dissolved in a 0.9% sterile saline solution (w/v), and 0, 2, and 4 hours after the injection the brains were extracted after a rapid decapitation. The corpus striatum was quickly extracted from all the animals and frozen immediately on solid CO2 until use. The method to perform RNA isolation and RT-PCR was described previously.

GALR2 [3] = settings: for GALR2 mRNA expression in the corpus striatum: naive rats, mean ± SEM
Method: as §1, §2, §3, §4

[4] = test system: hepatic cytosolic alcohol dehydrogenase (ADH)
Method: The activity of hepatic cytosolic alcohol dehydrogenase (ADH) in the rats from the two-bottle choice test was analysed. ADH activity has a good correlation with ethanol elimination rates in vivo (Lumeng et al., 1979) and chronic ethanol administration causes an increase in ADH activity (Buris et al., 1985).
The livers were removed 2 hours after i.c.v. injections and frozen in solid CO2 until use. Determination of ADH activity was performed in homogenized liver tissue in a TrisHCl solution (10 mM, pH=8.8; 0.5 mM dithiothreitol) centrifuged at 12.000 g for 10 minutes. ADH activity was evaluated using a microassay adapted to Cobas Mira analyser according to Shephard and colleagues (Shephard et al., 1987). Briefly, 300 μl of NAD solution (2.9 mM in 0.1 M Glycine/NaOH: p=10) was added to 30 μl of sample. The first optical reading was recorded before the addition of 20 μl of 17 mM ethanol, and then the rate of change in absorption of the NADH chromogen was recorded at 340 nm over time on the Cobas Mira analyser at 37° C. One activity unit was defined as the reduction of […] NAD to NADH/min at 37° C.

GALR1 [5] = assay: GALR1 mRNA expression in the corpus striatum during voluntary ethanol consumption (RT-PCR); assay type: in vivo, rat; settings: 3 nmol i.c.v., 2 hours after administration, two-bottle choice rats, versus vehicle/EtOH
Method: (§5) Groups of rats from the two-bottle choice paradigm were killed by decapitation 2 hours after a single i.c.v. administration of 3 nmol of GAL(1-15) or vehicle, and the corpus striatum was dissected and frozen on solid CO2 until mRNA expression analysis.

rats [6] = assay: Two-bottle choice test for voluntary ethanol consumption and preference; assay type: in vivo, rat; settings: for preference for ethanol compared with GAL / ethanol intake compared with GAL: 3 nmol i.c.v. each
Method: Male Sprague—Dawley rats (body weight 225-250 g, age 8 weeks) were obtained from Criffa and maintained in a humidity-controlled and temperature-controlled (20-22° C.) room. The rats in the two-bottle choice paradigm were during the entire protocol maintained on a 12-hour reversed light/dark cycle (lights off at 10 am) whereas the other rats were kept on 12-hour light/dark cycle. The animals had free access to food pellets and tap water. All animal experimentation was conducted in accordance with the University of Malaga Guidelines for the Care and Use of Laboratory Animals.
This protocol has been used previously (Diaz-Cabiale et al., 2011; Millon et al., 2015). Briefly, the rats were anaesthetised intraperitoneally with Equitesin (3.3 ml/kg body weight) and stereotaxically implanted with a unilateral chronic 22-gauge stainless steel guide cannula into the right lateral cerebral ventricle using the following coordinates: 1.4 mm lateral and 1 mm posterior to bregma and 3.6 mm below the surface of the skull (Paxinos, 1986). After surgery, animals were individually housed and allowed a recovery period of 7 days. The injections in the lateral ventricle were performed using a 26-gauge stainless steel injection cannula connected via PE-10 tubing to a Hamilton syringe. The total volume was 5 μl per injection, and the infusion time was 1 minute.
The solutions were prepared freshly, and the peptides were dissolved in artificial cerebrospinal fluid (with a composition of […], […] NaH2CO3, […] KCl, 0.5 nM KH2PO4, 1.2 nM CaCl2, 1.8 nM MgCl2, 0.5 nM Na2SO4, and 5.8 nM D-glucose, pH 7.4). GAL was obtained from NeoMPS, Strasbourg, France; GAL(1-15) and the GALR2 receptor antagonist M871 were obtained from Tocris Bioscience, Bristol, UK.
The two-bottle choice test was used to determine the voluntary ethanol consumption of rats as described previously (Castilla-Ortega et al., 2016). Briefly, after 7 days of water consumption (both bottles), a choice between water and increasing concentrations of ethanol [3, 6, and 10% (v/v)] was offered for 7 days each. A choice between 10% ethanol (v/v) and water was offered for several days until reaching a stable baseline value. Water and ethanol consumption were recorded daily. The position of the bottles was changed every day to avoid preference for location. Water intake (g/kg), ethanol intake (g/kg), and preference ([ethanol consumption/total fluid [water plus ethanol] consumption×100]) were calculated for each animal. Throughout the experiment, evaporation and spillage estimates were calculated using an empty cage with two bottles, one containing water and the other containing the appropriate ethanol solution. In the experiments, a choice between ethanol (10%) and water was offered.
Three sets of experiments were conducted in the two bottle choice paradigm. In the first set of experiments, a dose-response curve of GAL(1-15) was performed. For this, groups of rats received i.c.v. 1 nmol or 3 nmol of GAL(1-15), or vehicle 2, 14, and 24 hours before the measurements. In the second set of experiments, the effects of the two-bottle choice test for GAL and GAL(1-15) were compared. For this, groups of rats received i.c.v. 3 nmol of GAL, 3 nmol of GAL(1-15), or vehicle, 2, 14, and 24 hours before the test. In the last set of experiments, the role of GALR2 was studied; for this, groups of rats received i.c.v. 3 nmol of GAL(1-15) combined with 3 nmol of GALR2 […] before the measurements.

rats [7] = assay: Ethanol self-administration (operant model); assay type: in vivo, rat
Method: The use of operant models as substance self-administration models are widely used for performing motivation or hedonic studies. In these models, the animal has to “work” to obtain the reinforcing substance by pressing a lever, which allows the investigator to observe the animal's interest in the substance, as well as to learn the effect of the substance as a reward for the animal (Leeman et al., 2010). The method is performed according to earlier protocols (Alén et al., 2009) with some modifications. The test consists of a two-week training phase in which rats are kept the first 2 to 4 days with a water restriction to facilitate the learning of the task of pressing the lever to obtain the reinforcement. Animals are exposed daily to 30-minute sessions in self-administration boxes (Letica instruments). The boxes are equipped with two retractable levers located on both sides of a liquid dispenser (0.1 mL) positioned in the centre of the box panel. […] Once the training period is over, where all the animals have proven to have learned the task, daily sessions continue to be performed until establishing a stable baseline. Then training begins for ethanol consumption, and for this purpose a gradual increase in ethanol concentration (from 2% to 10%) is performed at the same time as a gradual reduction in saccharin concentration (from 0.16% to 0%) over several days, where after this period the animals become accustomed consuming 10% ethanol. After several sessions to establish a stable baseline, the animals are subjected to placement of a chronic intracerebroventricular cannula, leaving them for several days after this intervention to again establish a stable ethanol consumption baseline. Then the test is performed, consisting of a 30-minute session after administration of the different treatments, recording the number of active lever presses, as well as the number of rewards (FIG. 7).
Two sets of ethanol self-administration experiments were performed. In the first set of experiments, a dose-response curve of GAL(1-15) was performed. For this, groups of rats received i.c.v. GAL(1-15) at doses of 0.3, 1, and 3 nmol, or vehicle. In the second set of experiments, the effect of GAL 3 nmol and GAL(1-15) 3 nmol in ethanol self-administration were compared.

Rab5 = Rab5 mRNA expression in the corpus striatum during voluntary ethanol consumption (RT-PCR); assay type: in vivo, rat; settings: 3 nmol i.c.v., 2 hours after administration, two-bottle choice rats, versus vehicle/EtOH
Method: as §5

C-Fos = C-Fos mRNA expression in the corpus striatum during voluntary ethanol consumption (RT-PCR); assay type: in vivo, rat; settings: 3 nmol i.c.v., 2 hours after administration, two-bottle choice rats, versus vehicle/EtOH
Method: as §5

GALR2 [8] = assay: GALR2 mRNA expression in the corpus striatum during voluntary ethanol consumption (RT-PCR); assay type: in vivo, rat; settings: 3 nmol i.c.v., 2 hours after administration, two-bottle choice rats, versus vehicle/EtOH (p=0.101)
Method: as §5

[9] = ethanol 1.75 g/kg i.p., five minutes after administration, open field
[10] = 0 hours after i.p. injection of EtOH (4 g/kg)
[11] = 2 hours after i.p. injection of EtOH (4 g/kg)
[12] = 4 hours after i.p. injection of EtOH (4 g/kg)
[13] = 3 nmol i.c.v. each, 2, 14, 24 hours
[14] = i.c.v., any dose (1 or 3 nmol), any time point

With `CCO` [EtOH, ethanol] the distance travelled (rats [1]; [9]) was “reduced”, the mean speed (rats [1]; [9]) was “reduced” and the “GALR1 mRNA expression in the corpus striatum” value (shortened to “GALR1 mRNA expression”) (GALR1 [2]; [10]) was 0.87 ± 0.2. For the same molecule, the “GALR1 mRNA expression” value (GALR1 [2]; [11]) was 0.60 ± 0.1, the “GALR1 mRNA expression” value (GALR1 [2]; [12]) was 0.47 ± 0.1 and the “effect on GALR1 expression in the corpus striatum” value (GALR1 [2]; single injection of ethanol 4 g/kg i.p., at 2 and 4 hours) was “no effect”. For the same molecule, the “GALR2 mRNA expression in the corpus striatum” value (“GALR2 mRNA expression” for short) (GALR2 [3]; [10]) was 1.21 ± 0.1, the “GALR2 mRNA expression” value (GALR2 [3]; [11]) was 1.23 ± 0.1 and the “GALR2 mRNA expression” value (GALR2 [3]; [12]) was 1.44 ± 0.1. For the same molecule, the “effect on GALR2 mRNA levels in the corpus striatum” value (GALR2 [3]; single injection of ethanol 4 g/kg i.p., any time point) was “No effects were observed”, the “ADH activity (liver)” value ([4]; voluntary ethanol intake in two-bottle choice test, i.c.v. cerebrospinal fluid vehicle, mean ± SEM) was 313.1 ± 10.6 protein IU/g and the “ADH activity compared with the baseline group” value ([4]; voluntary ethanol intake through the two-bottle choice test protocol) was “significant increase”.
“Gly-Trp-Thr-Leu-Asn-Ser-Ala-Gly-Tyr-Leu-Leu-Gly-Pro-His-Ala (GWTLNSAGYLLGPHA; General formula for GAL 1-15) [GAL(1-15)]” was tested, and the “GALR1 mRNA levels in corpus striatum” value (GALR1 [5]) was “significant decrease”, the preference for ethanol (rats [6]; 1 nmol i.c.v.) was “no effects” and the ethanol intake (rats [6]; 1 nmol i.c.v., all the time points analysed (2, 14, 24 hours)) was “no effect”. The “food intake, difference between GAL and GAL(1-15)” value (rats [6]; [13]) was “No differences were found”, the “water intake, difference between GAL and GAL(1-15)” value (rats [6]; [13]) was “No differences were found” and the “preference for ethanol compared with GAL” value (rats [6]; 2 hours after administration) was “decreased”. The “ethanol intake compared with GAL” value (rats [6]; 2 hours after injection) was “significantly decreased”, the “ethanol intake compared with GAL” value (rats [6]; 14 hours after injection) was “significantly decreased” and the “ethanol intake compared with GAL” value (rats [6]; 24 hours after injection) was “significantly decreased”. The “preference for ethanol compared with GAL” value (rats [6]; 24 hours later) was “maintained”, the “decrease in the preference for ethanol” value (rats [6]; 3 nmol i.c.v., 2 hours after administration) was 90% and the ethanol intake (rats [6]; 3 nmol i.c.v., 2 hours after administration, 10% ethanol vs water, versus vehicle) was “significantly decreased”. For the same molecule, the ethanol intake (rats [6]; 3 nmol i.c.v., 14 hours after administration, 10% ethanol vs water, versus vehicle) was “significantly decreased”, the “preference for ethanol (decrease)” value (rats [6]; 3 nmol i.c.v., 24 hours) was “maintained” and the ethanol intake (rats [6]; 3 nmol i.c.v., 24 hours after administration, 10% ethanol vs water, versus vehicle) was “significantly decreased”. The food intake (rats [6]; [14]) was “no differences were found”, the water intake (rats [6]; [14]) was “no differences were found” and the “number of reinforcements in ethanol self-administration” value (rats [7]; 0.3 nmol i.c.v. 15 min before the test) was “no effect”. For the same molecule, the “number of ethanol reinforcements” value (rats [7]; 1 nmol i.c.v. 15 min before the test, versus control) was “significant decrease”, the “number of ethanol reinforcements (reduction)” value (rats [7]; 3 nmol i.c.v. 15 min before the test, versus control) was “even more pronounced” and the “number of ethanol reinforcements compared with GAL” value (rats [7]; 3 nmol i.c.v. each, 15 min before the test) was “significantly reduces”. For the same molecule, the distance travelled (rats [1]; GAL(1-15) 3 nmol i.c.v. 20 min before test, rats given i.p. ethanol 1.75 g/kg) was “decreased”, the distance travelled (rats [1]; GAL(1-15) 3 nmol i.c.v. 20 min before test, rats given systemic saline solution) was “no such effects were observed” and the mean speed (rats [1]; GAL(1-15) 3 nmol i.c.v. 20 min before test, rats systemically treated with ethanol 1.75 g/kg) was “decreased”. For the same molecule, the “mRNA levels of Rab5 in corpus striatum” value (Rab5) was “significant increase”, the “mRNA levels of C-Fos in corpus striatum” value (C-Fos) was “significant increase” and the “GALR2 expression in corpus striatum” value (GALR2 [8]) was “slight reduction”.
